The values that follow come from publication PMC10286336, “Potassium ion channels as a molecular target to reduce virus infection and mortality of honey bee colonies” (Virology Journal, 2023).

Assay [1] has as its system DWV-B. Put plainly: Field colony study, change in virus titer by qRT-PCR: DWV-B. The format is in vivo, Deformed Wing virus. Here is the method: (§1) Nucleus colonies of bees were established as previously described and relocated to a geographically isolated apiary and were grown to full-size colonies and equalized based on population prior to initiation of the study. The bees were maintained in eight-frame Langstroth equipment and kept as single deeps with a medium super with undrawn foundation. […] DWV inoculum was prepared by injecting filter-sterilized homogenate from a DWV-positive symptomatic bee into white-eyed honey bee pupae. 72-h later, an aliquot of pupae was screened for preliminary confirmation of DWV infection and found to contain between 5E9 and 8E9 viral copies of DWV-A per individual. Remaining pupae were homogenized in ice-cold PBS, with aliquots retained for qRT-PCR screening of DWV, as well as additional viruses relevant to bee health. Homogenate solutions were diluted in 1:1 sucrose and placed in calibrated spray bottles. A treatment and sampling schedule was constructed based on the 21-day egg-to-adult life history of worker bees (Additional file 1: Fig. S1). Both pinacidil and virus solutions were prepared fresh daily. […] A quantity of 15 fully formed adult stage bees were removed from the capped cells and placed into 15 mL conical vials. All samples were stored on dry ice during field collection, then transferred to − 80 °C until virus quantification. Titers of DWV-A, DWV-B, BQCV, IAPV, LSV-1 and LSV-2 were quantified by qRT-PCR using primer sequences described in our previous publications.
(§2) Samples were removed from − 80 °C storage and placed in a nuclease-free chilled bead bath (~ 4 °C) to gently thaw. […] RNA concentrations were then quantified for each sample using the NanoDrop 1-C® instrument. […] Library construction was performed using the Quantitect Reverse Transcription kit according to manufacturer instructions (Qiagen, N.V.). Template cDNA was then quantified by NanoDrop 1-C® and standardized to 500 ng/uL by addition of nuclease-free H2O.
(§3) To accurately quantify virus infection, it was necessary to first construct a standard curve for each target virus. […]

Assay [2] deals with bee dorsal vessel. Also noted: method as in PMID 28412203. To be noted: cited from earlier work.
The test system of assay [3] is bees inoculated with Israeli acute paralysis virus (IAPV). In words: IAPV-mediated mortality of bees fed KATP modulator or paraquat. The format is in vivo, Apis mellifera. Here is the method:
IAPV was obtained following our previously described methods. Approximately 30 adult bees from a heavily infected IAPV infected colony were froze in liquid nitrogen, ground to a fine powder, and homogenized in a phosphate extraction buffer. The supernatant was collected after centrifuging the emulsion and filtered through a 0.2 micron filter. The filtrate was subsequently centrifuged at 30,000 rpm to pellet the picornavirus particles and was followed by resusopension in PBS and centrifuged at 52,000 rpm overnight. The fractions containing virus particles were dialyzed against cold PBS overnight. Verification that IAPV was the only virus present in the inoculum was performed via qRT-PCR and quantification of IAPV was performed by absolute quantification using standard curve method as previously described.
Bees were immobilized on ice, then injected with PBS alone or containing IAPV and returned to the incubator. […] Quantification of IAPV mRNA among whole bees and excised insect dorsal vessels was performed by qRT-PCR as detailed below.

The test system of assay [4] is DWV-A. Put plainly: Field colony study, change in virus titer by qRT-PCR: DWV-A. The format is in vivo, Deformed Wing virus. Here is the method:
as §1, §2, §3

The subject of assay [5] is Flock House virus (FHV). Also noted: method as in PMID 28819165. The conditions noted are these: cited from earlier work.
In assay [6] the test system is Black queen cell virus (BQCV). Put plainly: Field colony study, change in virus titer by qRT-PCR: BQCV. The class given is in vivo. Here is the method:
as §1, §2, §3

Assay [7] relates to bee-relevant viruses. In words: Field colony study, bee-relevant viruses overall. The class given is in vivo, Apis mellifera. Here is the method:
as §1, §2, §3

For assay [8], the system named is LSV-2. In words: Field colony study, change in virus titer by qRT-PCR: LSV-2. The class given is in vivo, Lake Sinai virus. To be noted: emerging brood, 2 mM pinacidil, colony level. Here is the method: as §1, with “individual.” for “individual. Remaining pupae were homogenized in ice-cold PBS, with aliquots retained for qRT-PCR screening of DWV, as well as additional viruses relevant to bee health. Homogenate solutions were diluted in 1:1 sucrose and placed in calibrated spray bottles. A treatment and sampling schedule was constructed based on the 21-day egg-to-adult life history of worker bees (Additional file 1: Fig. S1). Both pinacidil and virus solutions were prepared fresh daily.”
Samples were removed from − 80 °C storage and placed in a nuclease-free chilled bead bath (~ 4 °C) to gently thaw. […] RNA concentrations were then quantified for each sample using the NanoDrop 1-C® instrument. […] Library construction was performed using the Quantitect Reverse Transcription kit according to manufacturer instructions (Qiagen, N.V.). […]

Assay [9] concerns glucose oxidase (GOX). In words: Glucose oxidase activity of treated bees (social immunity). The format is in vivo, Apis mellifera. Here is the method:
Individual bees were sampled at 24-h intervals and frozen in liquid nitrogen. Social immunity was measured by quantifying the metabolism of glucose to hydrogen peroxide by glucose oxidase. Briefly, heads were homogenized in ice-cold extraction buffer then centrifuged at 15,000×g. Aliquots of supernatant were incubated with horse radish peroxidase and glucose at 37 °C, then combined with the chromogen o-dianisidine dihydrochloride. Absorbance was read at 430 nm over a period of 90 min and compared to sample blanks, lacking chromogen. To measure individual immunity, phenoloxidase activity was measured as described. Abdomens were homogenized as and centrifuged as previously described. Supernatant was incubated at 37 °C, then combined with the chromogen L-Dopa. Absorbance was measured at 490 nm for 20 min, then compared to sample blanks lacking chromogen. To compare both glucose oxidase and phenol oxidase activity between samples, Vmax was calculated using the Michaelis–Menten equation.

Where [10] appears, read: emerging brood, 2 mM pinacidil, colony level.

For `CC(N/C(=N\C#N)Nc1ccncc1)C(C)(C)C` (stereo not shown) [pinacidil], the “Change of DWV-B titer versus uninoculated colonies” value in assay [1] (emerging brood, 2 mM pinacidil) was “not significantly different”. Also, the “Reduction of change in DWV-B titer compared to virus only inoculated colonies” value in [1] (setting [10]) is recorded as “sixfold”. For the same compound, the “DWV-B titers, virus only versus pinacidil + virus” value in assay [1] (nurse/forager bees) is given as “not significantly different”. Moreover, in assay [2], the “Dorsal vessel contraction rates” value is given as “increases”. In addition, in assay [3] (24-, 72-, or 96-h post-inoculation), the “Mortality of pinacidil + IAPV versus control treatment” value was “No significant difference”. Also, in [3] (pinacidil + IAPV, 48 and 120 h), the “Reduction in mortality compared to control bees” value stood at 25%. Further, in assay [4] (emerging brood, 2 mM pinacidil), the “Change of DWV-A titer versus uninoculated colonies” value is listed as “not significantly different”. The “Reduction of change in DWV-A titer compared to virus only inoculated colonies” value in [4] (setting [10]) is on record as “eight”. Also, the “DWV-A titers, virus only versus pinacidil + virus” value in assay [4] (nurse/forager bees) is “not significantly different”. The “Effect against FHV infection of bees” value in [5] is listed as “protective effect”. Besides, in assay [6] (emerging brood, 2 mM pinacidil), the “Change in BQCV titer versus untreated colonies” value was “not significantly different”. Also, the “Reduction of BQCV replication compared to virus only” value in assay [6] (setting [10]) is 3.8 fold. Moreover, the “BQCV replication compared to virus only inoculated colonies” value in [6] (nurse/forager bees) is “did not reduce viral replication”. Also, in assay [7] (colonies treated with pinacidil in the field), the “Reduction of titers of bee-relevant viruses” value was “up to 75 fold”. Besides, the “Viral replication in nurse bees” value in assay [7] (field study) is listed as “did not reduce viral replication”. Also, the “Viral replication in emerging bees” value in [7] (field study, mature colonies) is “near elimination”. For the same compound, the “Reduction of LSV-2 replication compared to virus inoculation-only colonies” value in assay [8] is recorded as “approximately fivefold”. The “Increase in GOX activity compared to untreated bees” value is given as 3 fold in assay [9] (24-h exposure) and 2.3 fold in assay [9] (72-h exposure).
